# Measurements: patent publication US4529737A, “Analgesic and anti-inflammatory arylalkanoic acid phthalidyl esters and pharmaceutical compositions thereof” (priority 1979, dated 1985)
# Read-outs that look alike come from different tables or passages of the source.
# Legend:
# [1] = tail compression test in mice (analgesic activity); type: in vivo, mouse; design: unit not given here; conditions: values marked * (I, II, III, VII) are statistically significant
# Excerpt: The tail compression test has been carried out in mice according to the method described by C. Bianchi (Brit. J. Pharmacol., 11, 104; 1956) by determining the time in seconds between the algic stimulation and the reaction of the mouse.
# [2] = in vivo; conditions: mouse
# [3] = carrageenin-induced rat paw edema test (anti-inflammatory activity); type: in vivo; design: unit not given here; conditions: oral, one hour before 2% carrageenin, paw volume 5 hours after, values marked * (I, V, VI, VII, VIII) are statistically significant
# Excerpt: For the determination of the anti-inflammatory activity, the carrageenin-induced rat paw edema test, as a modification of the method reported by C. A. Winth et al. (Proc. Soc. Exptl. Biol. Med., 111, 544; 1962) has been used. This method involves the reduction of the edema caused by the injection of a 2% carrageenin solution in the rat paw. The compounds under examination have been administered by oral route one hour before the injection of the edemigenic agent. The volume of the rat paw has been measured by a plethismometer before and 5 hours after the injection of the carrageenin.
# [4] = ulcerogenic activity in rats (DU50); conditions: rat, in vivo
# Excerpt: The ulcerogenic activity is expressed as DU50 in rats according to the method described by Dabrodie et al (Science, 170, 183; 1970).
# [5] = in vivo; conditions: rat
# [6] = head DL50*: data statistically significant
# [7] = rats, head DU50*: data statistically significant, read-out: DU50 ulcerogenic activity
Compound,Analgesic activity DE50 [1],LD50 [2] [mg/kg],Anti-inflammatory activity DE50 [3],TD50 [4] [mg/kg],LD50 [5] [mg/kg],"TD50 [4, 7] [mg/kg]","DL50 acute toxicity, rat [6] [mg/kg]"
"CC(C)Cc1ccc(C(C)C(=O)OC2OC(=O)c3ccccc32)cc1 (stereo not drawn) [Compound IA, phthalidyl 2-(4-isobutylphenyl)propionate]",2.08,1540,4.30,144,2180,–,–
"CC(C(=O)O)c1cccc(C(=O)c2ccccc2)c1 (stereo not drawn) [Compound III, 2-(3-benzoylphenyl)propionic acid, reference compound]",3.01,–,4.36,–,–,31.5,–
"O=C(CCC(=O)c1ccc(-c2ccccc2)cc1)OC1OC(=O)c2ccccc21 (stereo not drawn) [Compound VIIA, phthalidyl 4-(4-biphenylyl)-4-oxobutyrate]",2.95,1400,20.08,146,1380,–,–
"C=CCOc1ccc(CC(=O)O)cc1Cl [Compound V, 4-allyloxy-3-chlorophenylacetic acid, reference compound]",2.43,–,1058.45,214,–,–,–
"COc1ccc2cc([C@H](C)C(=O)O)ccc2c1 [Compound II, d-2-(6-methoxy-2-naphthyl)propionic acid, reference compound]",21.90,–,16.36,–,–,78.7,–
"CC(C(=O)OC1OC(=O)c2ccccc21)c1ccc(N2Cc3ccccc3C2=O)cc1 (stereo not drawn) [Compound IVA, phthalidyl 2-[4-(1-oxo-2-isoindolinyl)phenyl]propionate]",2.18,987,4.45,116,234,–,–
"COc1ccc2cc(C(C)C(=O)OC3OC(=O)c4ccccc43)ccc2c1 (stereo not drawn) [Compound IIA, phthalidyl d-2-(6-methoxy-2-naphthyl)propionate]",5.81,2140,14.82,133,1060,–,–
"O=C(O)Cc1ccc(-c2ccccc2)cc1 [Compound VIII, 4-biphenylylacetic acid, reference compound]",3.07,750,21.79,65.3,635,–,–
"CC(C)Cc1ccc(C(C)C(=O)O)cc1 (stereo not drawn) [Compound I, 2-(4-isobutylphenyl)propionic acid, reference compound]",5.28,–,59.14,85.9,–,–,1480.00
"CC(C(=O)O)c1ccc(N2Cc3ccccc3C2=O)cc1 (stereo not drawn) [Compound IV, 2-[4-(1-oxo-2-isoindolinyl)phenyl]propionic acid, reference compound]",2.58,536,5.45,51.1,62.3,–,–
"C=CCOc1ccc(CC(=O)OC2OC(=O)c3ccccc32)cc1Cl (stereo not drawn) [Compound VA, phthalidyl 4-allyloxy-3-chlorophenylacetate]",2.50,2060,117.34,380,1770,–,–
"O=C(Cc1ccc(-c2ccccc2)cc1)OC1OC(=O)c2ccccc21 (stereo not drawn) [Compound VIIIA, phtalidyl 4-biphenylylacetate]",2.78,1410,13.28,186,1170,–,–
"O=C(Cc1ccccc1Nc1c(Cl)cccc1Cl)OC1OC(=O)c2ccccc21 (stereo not drawn) [Compound VIA, phtalidyl 2-(2,6-dichloroanilino)phenylacetate]",4.33,593,144.21,26.1,342,–,–
"O=C(O)CCC(=O)c1ccc(-c2ccccc2)cc1 [Compound VII, 4-(4-biphenylyl)-4-oxobutyric acid, reference compound]",4.02,–,30.53,78.7,–,–,–
"CC(C(=O)OC1OC(=O)c2ccccc21)c1cccc(C(=O)c2ccccc2)c1 (stereo not drawn) [Compound IIIA, phthalidyl 2-(3-benzoylphenyl)propionate]",1.34,514,5.15,76.7,342,–,–
"O=C(O)Cc1ccccc1Nc1c(Cl)cccc1Cl [Compound VI, 2-(2,6-dichloroanilino)phenylacetic acid, reference compound]",3.81,–,189.54,–,–,13.1,–
